The text below walks through data of US11679112B2, “Cancer treatments using combinations of CDK and ERK inhibitors” (BIOMED VALLEY DISCOVERIES, INC., priority 2013, dated 2023).

Assay [1] concerns A549 cells. Briefly: Single agent proliferation assay, CellTiter-Glo, A549. Format: cell-based. To be noted: Homo sapiens; for IC50: 72 h, read-out: Relative IC50. The method, then:
(§1) Cells were seeded in 96-well plates at the densities indicated in Table 4 in RPMI containing 10% FBS and allowed to adhere overnight prior to addition of compound or vehicle control. Compounds were prepared from DMSO stocks to give the desired final concentrations. The final DMSO concentration was constant at 0.1%. Test compounds were incubated with the cells for 72 h at 37° C., 5% CO2 in a humidified atmosphere. CellTiter-Glo® reagent (Promega, Madison, Wis.) was added according to manufacturer's instructions and luminescence detected using the BMG FLUOstar plate reader (BMG Labtech, Ortenberg, Germany). A duplicate set of assay plates was incubated with 10 μg/ml Hoechst 33342 stain (Invitrogen, Grant Island, N.Y.) in complete growth medium for 1 h at 37° C., 5% CO2 in a humidified atmosphere. The medium was then removed and replaced with PBS and fluorescence detected using a BMG FLUOstar Omega plate reader (BMG labtech, Ortenberg, Germany). The average media only background value was deducted and the data analysed using a 4-parameter logistic equation in GraphPad Prism (GraphPad Software, La Jolla, Calif.).
(§2) The effects of BVD-523, the CDK4/6 inhibitors, another ERK inhibitor (SCH772984), and a reference MEK inhibitor (Trametinib), as single agents on cell viability was assessed after 72 h using two methods (FIGS. 2A-2L). The first method was by quantitating cellular ATP levels using CellTiter-Glo® (Promega, Madison, Wis.). The second method was by quantitating total amount of DNA in an assay well after staining the DNA with Hoechst stain.
A general note: ATP-based viability assays read luminescence as a measure of living cells.

In assay [2] the test system is A549 cells. Briefly: Single agent proliferation assay, Hoechst stain, A549. It is filed as cell-based. The following applies: Homo sapiens, 72 h, read-out: Relative IC50. As for the experimental part:
as §1, §2

The subject of assay [3] is H2122 cells. Kind of assay: Single agent proliferation assay, CellTiter-Glo, H2122. It is filed as cell-based. To be noted: Homo sapiens; for IC50: NCI-H2122, 72 h, read-out: Relative IC50. The method, then:
as §1, §2

Assay [4] has as its system H2122 cells. Kind of assay: Single agent proliferation assay, Hoechst stain, H2122. Format: cell-based. To be noted: Homo sapiens, NCI-H2122, 72 h, read-out: Relative IC50. The method, then: as §1, §2
The subject of assay [5] is H1437 cells. Kind of assay: Single agent proliferation assay, CellTiter-Glo, H1437. Format: cell-based. To be noted: Homo sapiens; for IC50: NCI-H1437, 72 h, read-out: Relative IC50; for inhibition at 3 µM: NCI-H1437, @3 μM. The method, then:
as §1, §2

The subject of assay [6] is H1437 cells. Briefly: Single agent proliferation assay, Hoechst stain, H1437. It is filed as cell-based. The following applies: Homo sapiens; for IC50: NCI-H1437, 72 h, read-out: Relative IC50. The method, then:
as §1, §2

Assay [7] concerns H226 cells. Briefly: Single agent proliferation assay, CellTiter-Glo, H226. It is filed as cell-based. The following applies: Homo sapiens; for inhibition at 10 µM: NCI-H226, @10 μM; for inhibition at 3 µM: NCI-H226, @3 μM. The method, then:
as §1, §2

Assay [8] has as its system H226 cells. Briefly: Single agent proliferation assay, Hoechst stain, H226. Format: cell-based. To be noted: Homo sapiens; for IC50: NCI-H226, 72 h, read-out: Relative IC50. The method, then: as §1, §2
In assay [9] the test system is MAPK signaling components in A375 cells. Kind of assay: Western blot of MAPK, cell cycle and apoptosis signaling in A375 cells. It is filed as cell-based, human. The method, then:
(§3) For Western blot studies, HCT116 cells (5×10^6) were seeded into 10 cm dishes in McCoy's 5A plus 10% FBS. A375 cells (2.5×10^6) were seeded into 10 cm dishes in DMEM plus 10% FBS. Cells were allowed to adhere overnight prior to addition of the indicated amount of test compound (BVD-523) or vehicle control. Cells were treated for either 4 or 24 hours before isolation of whole-cell protein lysates, as specified below. Cells were harvested by trypsinisation, pelleted and snap frozen. Lysates were prepared with RIPA (Radio-Immunoprecipitation Assay) buffer, clarified by centrifugation and quantitated by bicinchoninic acid assay (BCA) assay. 20-50 μg of protein was resolved by SDS-PAGE electrophoresis, blotted onto PVDF membrane and probed using the antibodies detailed in Table 2 (for the 4-hour treatment) and Table 3 (for the 24-hour treatment) below.
For orientation: A western blot detects proteins with antibodies after separation by electrophoresis.

The test system of assay [10] is MAPK signaling in HCT-116 cells. Kind of assay: Western blot of MAPK signaling in HCT116 cells. Format: cell-based, human. To be noted: HCT116, 4 hours, micromolar concentrations. The method, then:
as §3

Another assay concerns ERK. The following applies: Morris et al., 2013; cited from earlier work.
Where [11] appears, read: read-out: Maximal percentage inhibition.

The IC50 is the midpoint of a concentration-inhibition curve. The inhibition is the drop in the measured response relative to a control, in per cent. Turning to `CC(C)Nc1cc(-c2c[nH]c(C(=O)N[C@H](CO)c3cccc(Cl)c3)c2)c(Cl)cn1` [BVD-523], the IC50 with A549 cells [1] is 730 nM; in the assay with A549 cells [2], 590 nM; in the assay with H2122 cells [3], 450 nM; in the assay with H2122 cells [4], 450 nM; in the assay on H1437 cells [5], 1200 nM; in the assay on H1437 cells [6], 1400 nM. Also, the inhibition at 10 µM with H226 cells [7] (setting [11]) amounted to 34%; in the assay on H226 cells [8] (NCI-H226, @10 μM, read-out: Maximal percentage inhibition) it was 58%. Besides, the cyclin-D1 level entry in [9] (24 hours) is listed as “greatly reduced”. For the same compound, the “phosphorylation of ERK-dependent residues (T359/S363) in RSK 1 and 2 proteins” value in assay [9] (A375, 4 hours, micromolar concentrations) is given as “reduced”; in assay [10], “reduced”. Besides, the Bim-EL level result in assay [9] (A375, prolonged treatment) is listed as “increased”. Moreover, the “increased apoptosis (PARP cleavage)” value in assay [9] (A375, prolonged treatment) is “not observed”. The “MAPK feedback phosphatase DUSP6 level” value in assay [9] (BRAF mutant cell line, 24 hours) is “greatly reduced”. For the same compound, in assay [9] (RAF and RAS mutant cancer cells, acute and prolonged treatment), the “concentrations required to induce changes in substrate phosphorylation and effector targets of ERK” value is “low micromolar range”. Besides, in assay [9] (see FIG. 1), the “effect on autophosphorylation of ERK” value is “allows for the autophosphorylation of ERK while still inhibiting ERK”.

As to `CN(C)C(=O)c1cc2cnc(Nc3ccc(N4CCNCC4)cn3)nc2n1C1CCCC1` [LEE-011], the inhibition at 10 µM with A549 cells [1] (@10 μM, read-out: Maximal percentage inhibition) was 49%; in the assay with H2122 cells [3] (NCI-H2122, @10 μM, read-out: Maximal percentage inhibition) it was 44%; in the assay with H1437 cells [5] (NCI-H1437, @10 μM, read-out: Maximal percentage inhibition) it was 30%; with H226 cells [7] (setting [11]), 32%. Also, the IC50 in the assay with A549 cells [2] came out at 700 nM; in the assay on H2122 cells [4], 450 nM; with H1437 cells [6] it was 2800 nM; in the assay with H226 cells [8] it was 370 nM.

Regarding `CC(=O)O[C@H]1C(=O)[C@@]2(C)[C@H]([C@H](OC(=O)c3ccccc3)[C@]3(O)C[C@H](OC(=O)[C@H](O)[C@@H](NC(=O)c4ccccc4)c4ccccc4)C(C)=C1C3(C)C)[C@]1(OC(C)=O)CO[C@@H]1C[C@@H]2O` [Paclitaxcel, Paclitaxel], the IC50 with A549 cells [1] came to 3 nM; with A549 cells [2], 2 nM; in the assay on H2122 cells [3], 3 nM; with H2122 cells [4], 2 nM; in the assay on H1437 cells [5], 7 nM; with H1437 cells [6] it was 3 nM. Besides, the concentration for half-maximal inhibition (IC50) is 3 nM in the assay on H226 cells [7] (NCI-H226, 72 h, read-out: Relative IC50) and 3 nM in the assay on H226 cells [8].

As to `CC(=O)c1c(C)c2cnc(Nc3ccc(N4CCNCC4)cn3)nc2n(C2CCCC2)c1=O` [Palbociclib], the inhibition at 3 µM in the assay with A549 cells [1] (@3 μM, read-out: Maximal percentage inhibition) stood at 41%; in the assay with H2122 cells [3] (NCI-H2122, @3 μM, read-out: Maximal percentage inhibition) it was 48%; with H1437 cells [5] (setting [11]) it was 29%; in the assay with H226 cells [7] (setting [11]), 20%. Moreover, the IC50 in the assay on A549 cells [2] amounted to 130 nM; with H2122 cells [4], 150 nM; in the assay with H1437 cells [6] it was 220 nM; in the assay with H226 cells [8], 56 nM.

Consider `O=C(Nc1ccc2[nH]nc(-c3ccncc3)c2c1)[C@@H]1CCN(CC(=O)N2CCN(c3ccc(-c4ncccn4)cc3)CC2)C1` [SCH772984], for which the IC50 stood at 1100 nM in the assay with A549 cells [1], 740 nM with A549 cells [2], 630 nM with H2122 cells [3] and 530 nM in the assay with H2122 cells [4]. In addition, the inhibition at 3 µM in the assay on H1437 cells [5] (setting [11]) amounted to 57%; in the assay with H1437 cells [6] (NCI-H1437, @3 μM, read-out: Maximal percentage inhibition), 63%; in the assay on H226 cells [7] (setting [11]) it was 35%; in the assay on H226 cells [8] (NCI-H226, @3 μM, read-out: Maximal percentage inhibition), 49%. The “effect on autophosphorylation of ERK” value in the assay with ERK was “inhibits autophosphorylation of ERK”.

Take `CC(=O)Nc1cccc(-n2c(=O)n(C3CC3)c(=O)c3c(Nc4ccc(I)cc4F)n(C)c(=O)c(C)c32)c1` [Trametinib]: the 50% inhibitory concentration (IC50) in the assay on A549 cells [1] was determined as 5 nM; with A549 cells [2], 5 nM; with H2122 cells [3] it was 3 nM; with H2122 cells [4] it was 3 nM; in the assay on H1437 cells [5], 2 nM; in the assay on H1437 cells [6], 3 nM. The IC50 with H226 cells [8] turned out to be 2 nM. Also, the inhibition at 1 µM in the assay with H226 cells [7] (NCI-H226, @1 μM, read-out: Maximal percentage inhibition) came out at 57%.
